# Activity calls are given as the source filed them. No cut-off for these calls is given here.
# Key:
# Candida albicans [1] = experiment: Antibiofilm activity against fluconazole-resistant Candida albicans DAY185 assessed as inhibition of biofilm formation at 5 ug/ml measured after 24 hrs by 2D/3D imaging analysis; type: functional, organism-based; conditions: dose 5.0 µg/ml
# Candida albicans [2] = experiment: Downregulation of ALS3 mRNA level in fluconazole-resistant Candida albicans DAY185 assessed as fold decrease at 50 ug/ml incubated for 6 hrs by qRT-PCR analysis relative to control; type: functional; conditions: dose 50.0 µg/ml
# Candida albicans [3] = experiment: Antibiofilm activity against fluconazole-resistant Candida albicans DAY185 assessed as inhibition of biofilm formation at 7 ug/ml measured after 24 hrs by crystal violet staining based analysis relative to control; type: functional
# Brassica rapa = experiment: Toxicity in Brassica rapa assessed as seed germination rate at 10 to 100 ug/ml treated for 4 days relative to control; type: organism-based; conditions: in vivo, 96 h, at 10 to 100 µg/mL, dose 10-100 µg/ml, time 4 day
# Candida albicans [4] = experiment: Antibiofilm activity against fluconazole-resistant Candida albicans DAY185 assessed as reduction in mean biofilm thickness on bio-compatible PLGA surface coated with compound incubated for 24 hrs by COMSTAT analysis; type: functional, organism-based
# Candida albicans [5] = experiment: Antibiofilm activity against fluconazole-resistant Candida albicans DAY185 assessed as inhibition of biofilm formation at 5 ug/ml measured after 24 hrs by crystal violet staining based analysis; type: functional, organism-based; conditions: dose 5.0 µg/ml
# Candida albicans [6] = experiment: Antibiofilm activity against fluconazole-resistant Candida albicans DAY185 assessed as reduction in overall biofilm mass on bio-compatible PLGA surface coated with compound at 5 to 10 ug/ml incubated for 24 hrs by CLSM analysis; type: functional, organism-based; conditions: dose 5-10 µg/ml
# Candida albicans [7] = experiment: Inhibition of yeast to hypha transition in fluconazole-resistant Candida albicans DAY185 assessed as decrease in filamentous growth at 5 to 20 ug/ml measured after 24 hrs by SEM analysis; type: functional, organism-based; conditions: dose 5-20 µg/ml
# Candida albicans [8] = experiment: Inhibition of yeast to hypha transition in fluconazole-resistant Candida albicans DAY185 assessed as decrease in cell aggregation at 5 to 20 ug/ml measured after 24 hrs by SEM analysis; type: functional, organism-based; conditions: dose 5-20 µg/ml
# Candida albicans [9] = experiment: Antibiofilm activity against fluconazole-resistant Candida albicans DAY185 assessed as reduction in biofilm mass on bio-compatible PLGA surface coated with compound incubated for 24 hrs by COMSTAT analysis; type: functional, organism-based
# Candida albicans [10] = experiment: Additive antibiofilm activity against fluconazole-resistant Candida albicans DAY185 assessed as inhibition of biofilm formation at 5 ug/ml measured after 24 hrs in presence of AMB by crystal violet staining based analysis relative to control; type: functional, organism-based; conditions: dose 5.0 µg/ml
# Candida albicans [11] = experiment: Upregulation of ZAP1 mRNA level in fluconazole-resistant Candida albicans DAY185 assessed as fold increase at 50 ug/ml incubated for 6 hrs by qRT-PCR analysis relative to control; type: functional; conditions: dose 50.0 µg/ml
# Candida albicans [12] = experiment: Upregulation of UCF1 mRNA level in fluconazole-resistant Candida albicans DAY185 assessed as fold increase at 50 ug/ml incubated for 6 hrs by qRT-PCR analysis relative to control; type: functional; conditions: dose 50.0 µg/ml
# Candida albicans [13] = experiment: Antibiofilm activity against fluconazole-resistant Candida albicans DAY185 assessed as inhibition of biofilm formation at 10 to 20 ug/ml measured after 24 hrs by 2D/3D imaging analysis relative to control; type: functional; conditions: dose 10-20 µg/ml, at 10 to 20 µg/mL
# Candida albicans [14] = experiment: Antibiofilm activity against fluconazole-resistant Candida albicans DAY185 assessed as reduction in biofilm thickness on bio-compatible PLGA surface coated with compound at 5 to 10 ug/ml incubated for 24 hrs by CLSM analysis; type: functional, organism-based; conditions: dose 5-10 µg/ml
# Candida albicans [15] = experiment: Inhibition of yeast to hypha transition in fluconazole-resistant Candida albicans DAY185 assessed as decrease in hyphal growth at 5 to 20 ug/ml measured after 24 hrs by SEM analysis; type: functional, organism-based; conditions: dose 5-20 µg/ml
# Candida albicans [16] = experiment: Upregulation of YWP1 mRNA level in fluconazole-resistant Candida albicans DAY185 assessed as fold increase at 50 ug/ml incubated for 6 hrs by qRT-PCR analysis relative to control; type: functional; conditions: dose 50.0 µg/ml
# Candida albicans [17] = experiment: Upregulation of GST3 mRNA level in fluconazole-resistant Candida albicans DAY185 assessed as fold increase at 50 ug/ml incubated for 6 hrs by qRT-PCR analysis relative to control; type: functional; conditions: dose 50.0 µg/ml
# Candida albicans [18] = experiment: Inhibition of yeast to hypha transition in fluconazole-resistant Candida albicans DAY185 assessed as decrease in hyphal development at >=10 ug/ml measured after 24 hrs by SEM analysis relative to control; type: functional; conditions: dose >= 10 µg/ml
# [Candida] auris [19] = Antibiofilm activity against Candida auris KCTC 17809 assessed as inhibition of biofilm formation by crystal violet staining based analysis; type: functional, organism-based; conditions: Candidozyma auris
# Candida albicans [20] = experiment: Upregulation of CDR11 mRNA level in fluconazole-resistant Candida albicans DAY185 assessed as fold increase at 50 ug/ml incubated for 6 hrs by qRT-PCR analysis relative to control; type: functional; conditions: dose 50.0 µg/ml
# Candida albicans [21] = experiment: Downregulation of HWP1 mRNA level in fluconazole-resistant Candida albicans DAY185 assessed as fold decrease at 50 ug/ml incubated for 6 hrs by qRT-PCR analysis relative to control; type: functional; conditions: dose 50.0 µg/ml
# Candida albicans [22] = experiment: Inhibition of yeast to hypha transition in fluconazole-resistant Candida albicans DAY185 assessed as decrease in hyphal adhesion at 5 to 20 ug/ml measured after 24 hrs by SEM analysis; type: functional, organism-based; conditions: dose 5-20 µg/ml
# Candida albicans [23] = experiment: Inhibition of yeast to hypha transition in fluconazole-resistant Candida albicans DAY185 assessed as decrease in germ tube formation at 5 to 20 ug/ml measured after 24 hrs by SEM analysis; type: functional, organism-based; conditions: dose 5-20 µg/ml
# Candida albicans [24] = experiment: Antibiofilm activity against fluconazole-resistant Candida albicans DAY185 assessed as inhibition of biofilm formation on bio-compatible PLGA surface coated with compound at 5 to 10 ug/ml incubated for 24 hrs by CLSM analysis; type: functional, organism-based; conditions: dose 5-10 µg/ml
# [Candida] auris [25] = Antibiofilm activity against Candida auris KCTC 17810 assessed as inhibition of biofilm formation by crystal violet staining based analysis; type: functional, organism-based; conditions: Candidozyma auris
# [26] = Toxicity in Caenorhabditis elegans assessed as nematode survival at higher concentrations treated for 10 days; conditions: 240 h, time 10 day
# Candida albicans [27] = experiment: Antibiofilm activity against fluconazole-resistant Candida albicans DAY185 assessed as reduction in substratum coverage on bio-compatible PLGA surface coated with compound at 5 ug/ml incubated for 24 hrs by COMSTAT analysis; type: functional, organism-based; conditions: dose 5.0 µg/ml
# Candida albicans [28] = experiment: Antibiofilm activity against fluconazole-resistant Candida albicans DAY185 assessed as inhibition of biofilm formation at 50 ug/ml measured after 24 hrs by crystal violet staining based analysis relative to control; type: functional
# Candida albicans [29] = experiment: Additive antibiofilm activity against fluconazole-resistant Candida albicans DAY185 assessed as inhibition of biofilm formation at 5 ug/ml measured after 24 hrs in presence of BTZ by crystal violet staining based analysis relative to control; type: functional, organism-based; conditions: dose 5.0 µg/ml
# Candida albicans [30] = experiment: Antibiofilm activity against Candida albicans ATCC 10231 assessed as inhibition of biofilm formation by crystal violet staining based analysis; type: functional, organism-based
# Candida albicans [31] = experiment: Antibiofilm activity against Candida albicans KCCM 12552 assessed as inhibition of biofilm formation by crystal violet staining based analysis; type: functional, organism-based
# Candida albicans [32] = experiment: Upregulation of IFD6 mRNA level in fluconazole-resistant Candida albicans DAY185 assessed as fold increase at 50 ug/ml incubated for 6 hrs by qRT-PCR analysis relative to control; type: functional; conditions: dose 50.0 µg/ml
# Candida albicans [33] = experiment: Downregulation of ECE1 mRNA level in fluconazole-resistant Candida albicans DAY185 assessed as fold decrease at 50 ug/ml incubated for 6 hrs by qRT-PCR analysis relative to control; type: functional; conditions: dose 50.0 µg/ml
# Candida albicans [34] = experiment: Effect on UME6 mRNA level in fluconazole-resistant Candida albicans DAY185 at 50 ug/ml incubated for 6 hrs by qRT-PCR analysis; type: functional; conditions: dose 50.0 µg/ml
# Candida albicans [35] = experiment: Antibiofilm activity against fluconazole-resistant Candida albicans DAY185 assessed as inhibition of biofilm formation at 1 ug/ml measured after 24 hrs by crystal violet staining based analysis relative to control; type: functional
# Candida albicans [36] = experiment: Antibiofilm activity against fluconazole-resistant Candida albicans DAY185 assessed as inhibition of biofilm formation at 20 ug/ml measured after 24 hrs by crystal violet staining based analysis relative to control; type: functional
smiles,measurement,setting,value
Clc1nc(Cl)c2c(I)c[nH]c2n1,inhibition,Candida albicans [1],Active
same,fold change (FC),Candida albicans [2],8
same,inhibition at 7 µg/mL,Candida albicans [3],100%
same,Activity,Brassica rapa,> 90%
same,Activity,Candida albicans [4],Dose-dependent-effect; Nearly Undetectable Levels Were Observed At 5 Ug/Ml
same,inhibition,Candida albicans [5],Active
same,Activity,Candida albicans [6],Active; More Pronounced Effects Were Observed At Higher Concentration
same,inhibition,Candida albicans [7],Active
same,inhibition,Candida albicans [8],Active
same,Activity,Candida albicans [9],Dose-dependent-effect; Nearly Undetectable Levels Were Observed At 5 Ug/Ml
same,inhibition,Candida albicans [10],Active
same,fold change (FC),Candida albicans [11],10
same,fold change (FC),Candida albicans [12],37
same,inhibition (INH),Candida albicans [13],~100%
same,Activity,Candida albicans [14],Active; More Pronounced Effects Were Observed At Higher Concentration
same,inhibition,Candida albicans [15],Active
same,fold change (FC),Candida albicans [16],55
same,fold change (FC),Candida albicans [17],58
same,inhibition (INH),Candida albicans [18],100%
same,inhibition,[Candida] auris [19],Dose-dependent-effect
same,fold change (FC),Candida albicans [20],138
same,fold change (FC),Candida albicans [21],57
same,inhibition,Candida albicans [22],Active
same,inhibition,Candida albicans [23],Active
same,inhibition,Candida albicans [24],Active; Significant Effect Even At Lower Concentration
same,inhibition,[Candida] auris [25],Dose-dependent-effect
same,Activity,[26],Toxic
same,Activity,Candida albicans [27],Active
same,inhibition at 50 µg/mL,Candida albicans [28],> 85%
same,inhibition,Candida albicans [29],Active
same,inhibition,Candida albicans [30],Dose-dependent-effect
same,inhibition,Candida albicans [31],Dose-dependent-effect
same,fold change (FC),Candida albicans [32],82
same,fold change (FC),Candida albicans [33],143
same,Activity,Candida albicans [34],No effect
OC(Cn1cncn1)(Cn1cncn1)c1ccc(F)cc1F [FLUCONAZOLE],inhibition at 1 µg/mL,Candida albicans [35],< 12%
Clc1ncnc2[nH]cc(Br)c12,inhibition at 50 µg/mL,Candida albicans [28],> 85%
Clc1c[nH]c2ncnc(Cl)c12,inhibition at 50 µg/mL,Candida albicans [28],> 85%
Clc1nc(Cl)c2c(Br)c[nH]c2n1,inhibition at 20 µg/mL,Candida albicans [36],> 85%
same,inhibition at 50 µg/mL,Candida albicans [28],> 95%

# — ChEMBL document CHEMBL6182857, “Targeting biofilm formation in Candida albicans with halogenated pyrrolopyrimidine derivatives” (Eur J Med Chem, 2025)
